# Patent publication US20240166702A1, “COMPOSITIONS AND METHODS FOR TREATING BREAST CANCER” (Arizona Board of Regents on Behalf of The University of …, priority 2021, published 2024)
# Legend:
# [1] = test system: A549 lung cancer line with wildtype EGFR; test: MTT cell viability assay in A549 cells; type: cell-based; details: 3 days
# [2] = test system: pAkt and dpERK; test: EGF-dependent Akt and ERK activation in MDA-MB-468 cells; type: cell-based, human; details: MDA-MB-468, EGF stimulated
# [3] = test system: MCF10A cells; type: cell-based
# [4] = test system: IL1RL1; test: RT-PCR analysis of IL1RL1 in MDA-MB-468 cells; type: cell-based, human; details: similarly treated MDA-MB-468 cells
# Source text: A-C. […] A. A gene ontology enrichment bubble plot was produced, and the top 30 enriched GO terms are shown. Color indicates −1*log 10(FDR) for significance of overlap (the higher the more significant). X axis=log odds ratio for genes annotated to that GO term. […] C. RT-PCR analysis of IL1RL1.
# A significant impact on the immune response, especially IL-1 dependent pathways was identified (FIG. 12A). IL-1-specific genes were searched and an upregulation in several IL1R genes, including IL1R2, IL1RL1, IL1RL2, IL1RAP and IL1RN (FIG. 12B) were found. […] It is hypothesized that the transient and targeted activation of the IL1/TLR pathway in the tumors may allow for the immune system to become active where previously these tumors were immune suppressive. Triple negative breast cancers with active EGFR pathways are clinically immune suppressive, and it is hypothesized that blocking nEGFR may allow for the utilization of immune targeting to treat these cancers.
# [5] = test system: WAP-TGFα tumors; test: Immune profiling FACS analysis of WAP-TGFα tumors; type: in vivo, mouse; details: 3 treated tumors; preliminary FACS
# Experimental: Preliminary immune profiling FACS analysis performed with the markers described in Example 1.
# To begin to evaluate how these changes indicated by NanoString represented the immune microenvironment of these tumors, Immune Profiling was performed. […] When tumors had regressed to ˜100 mm^3 (after 1-2 weeks of treatment), tumor were excised, treated with collagenase and analyzed by FACS, using a 17-antibody panel to determine cell types present. Data was analyzed by first selecting for CD45+ cells to isolate leukocytes, then further gated based on markers specific to cells of both the adaptive and innate immune system. This preliminary analysis was done with 3 cSNX1.3-treated tumors, and the internal positive control of one spleen. […]
# Immune Profiling: Tissues are digested and analyzed by FACS for the following immune markers: CD45 (lymphocytes), CD4 (helper T cells) CD3 (Pan T cell), CD25 (Activated T cells), CD8a (cytotoxic T cells), Ly6G (G-Myeloid Derived Suppressor Cells (MDSC), CD11 b (MDSC), Ly6C (M-M DSC), CD11C (Dendritic Cells), F4/80 (Macrophages), Granzyme B (Natural Killer (NK) and CD8 T cells), Arginase 1 (MDSC), Perforin (NK and CD8 Tcells), iNos (macrophages), TNFα (pro inflammatory cytokine), INFy (pro inflammatory cytokine), FoxP3 (Treg). The samples are run on a Cytek Aurora full spectrum flow cytometer and are optimized for the mouse tissues (FIG. 10). […]
# [6] = molecular target: EGFR kinase domain / SNX1 Bar domain (Homo sapiens, UniProt P00533); test: MST binding of EGFR kinase domain with SNX1 Bar domain and peptides; details: EGFR kinase domain 50 nM
# Sequence of EGFR kinase domain / SNX1 Bar domain (P00533 712-979 limits assumed): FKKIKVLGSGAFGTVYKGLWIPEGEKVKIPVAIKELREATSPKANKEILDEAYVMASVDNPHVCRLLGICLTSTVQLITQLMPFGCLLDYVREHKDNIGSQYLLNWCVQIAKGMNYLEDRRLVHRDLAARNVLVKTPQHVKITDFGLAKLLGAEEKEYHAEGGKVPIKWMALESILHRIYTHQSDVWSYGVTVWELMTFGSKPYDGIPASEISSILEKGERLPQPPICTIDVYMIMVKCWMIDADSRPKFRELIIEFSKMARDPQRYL
# [7] = test system: CHO cells; test: Effect on CHO cells that lack EGFR expression; type: cell-based
# Source text: No effect on CHO cells that lack EGFR expression was observed.
# [8] = test system: WAP-TGFα tumors; test: Anti-NKp46 antibody analysis of WAP-TGFα tumors for NK cells; type: in vivo, mouse; details: anti-NKp46 antibodies
# Experimental: (§1) C. WAP-TGFα tumors treated with either SNX1.3 or cPTD4 were analyzed for NK cells using an anti-NKp46 antibody. Inset is 20×.
# In addition to bioinformatics identification of CTLs in these tumors, similar analysis implicated recruitment of NK cells as well (FIG. 9). As a part of the innate immune system, NK cells should only be recruited if a change has occurred to display NK-activating antigens. While there are many such antigens expressed under a variety of immune modulation conditions, some are highly associated with activation of NK cells against cancers, such as ULBP2/3 or MICA/MICB32.
# [9] = test system: WAP-TGFα tumors; test: Histology and protein lysate analysis of treated WAP-TGFα tumors; type: in vivo, mouse
# Source text: Mice were bred continuously to induce transgene expression and palpated weekly for tumor formation. […] A. Changes in tumor size from entry into study until end of study are shown for each individual tumor, (*) indicate tumors that entered the study at size greater than 500 mm^3, all other tumors entered the study at ˜100 mm^3. B. a Kaplan-Meier survival curve was generated showing when mice were sacrificed by either reaching tumor burden (2000 mm^3) or the end of the study (p=0.0002). C. Upon sacrifice tumors were harvested and fixed in 10% formalin and embedded in paraffin. Slides were stained with hematoxylin and eosin and imaged at 20×. D. Protein lysates were generated from tumors upon sacrifice and probed for the indicated proteins.
# (§2) A. Tumors (n=6 each treatment) from WAP-TGF mice as described in FIG. 1 were embedded and analyzed by NanoString. […] C. Tumors were dissected, lysed, and analyzed for apoptosis by probing for cleaved PARP and PDL1 expression.
# At the end of the study, mice were sacrificed and tissues were collected and fixed in 10% buffered formalin or homogenized in tissue lysis buffer. Tissues were sectioned and evaluated for changes to tissue morphology in response to peptide treatment (FIG. 3C). […] Representative tumors from the PARP-cleavage positive (cSNX1.3-treated) and negative (cPTD4-treated) are shown (FIG. 3C).
# (§3) Due to the increased leukocyte infiltration identified by histology of cSNX1.3-treated WAP-TGFα mice, NanoString analysis was performed using a panel that identifies alterations in immune regulators through localized analysis of transcript expression (PanCancer IO 360 Panel). […] These include several immune/inflammatory genes (such as CD2, TLR, CD28, H2-M3, Ly6C1, cytokines, and chemokines) as well as genes that could impact the metastatic potential of the microenvironment (including collagen 11A1 and MM P12). NanoString bioinformatics analysis further identified that these changes could be due to an increase in Cytotoxic T lymphocytes (CTLs) in cSNX1.3-treated samples compared to PTD4 (FIG. 8B). […] Therefore, tumor lysates were prepared and evaluated for apoptosis and a loss of the negative immune checkpoint receptor PDL1 (FIG. 8C). […] These changes could indicate an alteration from an immune-suppressive to an immune-surveilling microenvironment.
# [10] = test system: WAP-TGFα tumors; test: NanoString analysis of WAP-TGFα tumors (PanCancer IO 360 Panel); type: in vivo, mouse
# Experimental: as §2, §1, §3
smiles,measurement,setting,value
CC[C@H](C)[C@H](NC(=O)[C@@H](NC(=O)[C@H](Cc1c[nH]cn1)NC(=O)[C@H](CC(N)=O)NC(=O)[C@H](CCCCN)NC(=O)[C@H](C)NC(=O)[C@H](CCCNC(=N)N)NC(=O)[C@H](C)NC(=O)[C@H](CCC(N)=O)NC(=O)[C@H](CCCNC(=N)N)NC(=O)[C@H](C)NC(=O)[C@H](C)NC(=O)[C@H](C)NC(=O)[C@H](CCCNC(=N)N)NC(=O)[C@H](C)NC(=O)[C@H](Cc1ccc(O)cc1)NC(C)=O)C(C)C)C(=O)N[C@@H](CCCCN)C(=O)N[C@@H](Cc1ccc(O)cc1)C(=O)N[C@@H](CC(C)C)C(=O)N[C@@H](CCC(=O)O)C(=O)N[C@H](C(=O)N[C@@H](CC(C)C)C(=O)N[C@@H](CC(C)C)C(=O)N[C@@H](Cc1ccc(O)cc1)C(=O)N[C@@H](CO)C(=O)N[C@@H](CCC(N)=O)C(=O)N[C@@H](CCC(N)=O)C(=O)N[C@@H](CCC(N)=O)C(=O)N[C@@H](CC(C)C)C(=O)N[C@@H](C)C(=O)N[C@@H](CCCCN)C(=O)N[C@@H](Cc1ccc(O)cc1)C(=O)N[C@@H](Cc1c[nH]c2ccccc12)C(=O)N[C@@H](CCC(=O)O)C(=O)N[C@@H](C)C(=O)N[C@@H](Cc1ccccc1)C(=O)N[C@@H](CC(C)C)C(N)=O)[C@@H](C)O [cSNX1.3],"inhibition of cell survival, compared with Sapitinib",[1],more effective than Sapitinib
same,immediate Akt or ERK activation,[2]; 15′,no impact
same,"pAkt and dpERK activation, late",[2]; after an hour (60′),suppressed
same,impact on normal immortalized cells,[3],almost no impact
same,IL1RL1 expression,[4],upregulated
same,CTLs in tumors,[5],Abundant
same,M1 macrophages over M2 macrophages (M1/M2 ratio),[5],high and increase
same,binding of EGFR to SNX1,[6],competitively inhibits
same,effect on CHO cells,[7],No effect
same,NK cell infiltration into tumors,[8],Significant NK cell infiltration
same,changes to tissue architecture in the normal mammary gland,[9]; fixed tissue sections at end of study,No changes
same,leukocyte infiltration of tumors,[9]; identified by histology,increased
same,overall PDL1 expression in tumors,[9]; tumor lysates,decrease
same,cleaved PARP / apoptosis in treated tumors,[9]; tumor protein lysates at sacrifice,significant increase
same,"expression of TLR1, TLR7, TLR8, TLR9, IRF5 and IRF8",[10]; NanoString,increased expression
same,Cytotoxic T lymphocytes (CTLs) in tumors,"[10]; NanoString bioinformatics, compared to PTD4, six tumors each",increase
same,NK cells in tumor samples,"[10]; NanoString, compared to PTD4 control",increase
